Assay results taken from ChEMBL document CHEMBL2062495.
The source made the active and inactive calls. The calls are words filed in the database; no cut-off is given here. Square brackets hold non-standard residues; d marks the D form. Peptide text beside a SMILES is read from it. * marks the point of attachment. Sta = CC(C)C[C@H](N)[C@@H](O)CC(=O)O; NMe2Val = CC(C)[C@@H](C(=O)*)N(C)C; dNMeF = CN[C@H](Cc1ccccc1)C(=O)O; dHiv = CC(C)[C@@H](O)C(=O)O; Hiv = CC(C)[C@H](O)C(=O)O

Key:
Dendritic cell [1] = assay: (§1) Inhibition of MHC class 2-dependent antigen processing in DO11.10 TCR transgenic mouse spleen CD11+ dendritic cells assessed as inhibition of whole ovalbumin-induced CD4+ T cell proliferation incubated for 1 hr prior to whole ovalbumin-challenge measured after 72 hrs by [3H]thymidine incorporation assay; type: functional, tissue-based
Dendritic cell [2] = assay: as §1, with “ovalbumin 323 to 339-induced” for “whole ovalbumin-induced”, “ovalbumin 323 to 339 challenge” for “whole ovalbumin-challenge”; type: functional, tissue-based

In the case of `COC(=O)[C@@H]1CCCN1C(=O)[C@@H](Cc1ccccc1)N(C)C(=O)[C@H](C)NC(=O)[C@@H](NC(=O)C[C@H](O)[C@H](CC(C)C)NC(=O)[C@H](CC(N)=O)NC(=O)[C@H](CC(C)C)NC(=O)[C@H](OC(=O)[C@@H](OC(=O)[C@H](C(C)C)N(C)C)C(C)C)C(C)C)[C@@H](C)O` (NMe2Val-[Hiv][dHiv]LN[Sta]TA[dNMeF]P-OMe), the inhibition (Dendritic cell [1]) is reported as “inactive” and the inhibition (Dendritic cell [2]) is reported as “inactive”.
